Measured values reported in article PMC3965853 (Cancer chemotherapy and pharmacology, 2014).
“And” between values parts separate entries of the source, which are not always exact repeats. Identical values can stand only once. “Also recorded” adds a separate entry of the source.

Columns and labels:
[1] = 30 min iv infusion days 1 to 5 of 21-day cycle, with 150 mg oral erlotinib daily
[2] = test system: refractory solid tumors; experiment: Antitumor response assessment; type: in vivo, patients
[3] = Topotecan pharmacokinetics in plasma and urine without and with erlotinib; type: in vivo, patients; conditions: for CLrenal, Mean (SD) / CLrenal, Median / CLrenal, Range / CL, Mean (SD) / CL, Median / CL, Range / Dosage-normalized AUC, Range: total topotecan; for CLrenal, Mean (SD) / CLrenal, Median / CLrenal, Range: n 13; for CL, Mean (SD) / CL, Median / CL, Range / Dosage-normalized AUC, Range: n 19
[4] = test system: platinum refractory/resistant ovarian cancer; conditions: lapatinib in combination with topotecan, group of 18 patients; cited from earlier work
[5] = test system: relapsed/refractory ovarian cancer; conditions: topotecan and lapatinib, 35 patients evaluable; cited from earlier work
[6] = all patients n = 28, topotecan + erlotinib 150 mg
[7] = topotecan 0.75 mg/m^2 + erlotinib 150 mg, n = 8
[8] = topotecan 1.0 mg/m^2 + erlotinib 150 mg, n = 14
[9] = topotecan 1.25 mg/m^2 + erlotinib 150 mg, n = 6

CC[C@@]1(O)C(=O)OCc2c1cc1n(c2=O)Cc2cc3c(CN(C)C)c(O)ccc3nc2-1 [topotecan]
maximum tolerated dosage (MTD) of topotecan [1]: 1.0 mg/m^2
Best overall response: Complete response, % of patients [2, 6]: 0%
Best overall response: Not evaluable, % of patients [2, 6]: 21.4%
Best overall response: Not evaluable, No. of Patients [2, 6]: 6
Best overall response: Partial response, % of patients [2, 6]: 7% and 7.1%
Best overall response: Progressive disease, % of patients [2, 6]: 29% and 28.6%
Best overall response: Progressive disease, No. of Patients [2, 6]: 8
Best overall response: Stable disease, % of patients [2, 6]: 42.9%
Best overall response: Stable disease, No. of Patients [2, 6]: 12
Best overall response: Complete response, No. of Patients [2, 7]: 0
Best overall response: Not evaluable, No. of Patients [2, 7]: 1
Best overall response: Partial response, No. of Patients [2, 7]: 0
Best overall response: Progressive disease, No. of Patients [2, 7]: 4
Best overall response: Stable disease, No. of Patients [2, 7]: 3
Best overall response: Complete response, No. of Patients [2, 8]: 0
Best overall response: Not evaluable, No. of Patients [2, 8]: 4
Best overall response: Partial response, No. of Patients [2, 8]: 1
Best overall response: Progressive disease, No. of Patients [2, 8]: 4
Best overall response: Stable disease, No. of Patients [2, 8]: 5
Best overall response: Complete response, No. of Patients [2, 9]: 0
Best overall response: Not evaluable, No. of Patients [2, 9]: 1
Best overall response: Partial response, No. of Patients [2, 9]: 1
Best overall response: Progressive disease, No. of Patients [2, 9]: 0
Best overall response: Stable disease, No. of Patients [2, 9]: 4
CLrenal, Mean (SD) ([3]; Cycle 1 (without erlotinib)): 4.95 (2.38) L/h/m^2
CLrenal, Median ([3]; Cycle 1 (without erlotinib)): 4.61 L/h/m^2
CLrenal, Range ([3]; Cycle 1 (without erlotinib)): 1.29–9.12 L/h/m^2
CL, Mean (SD) ([3]; Cycle 1 (without erlotinib)): 9.41 (3.40) L/h/m^2
CL, Median ([3]; Cycle 1 (without erlotinib)): 8.55 L/h/m^2
CL, Range ([3]; Cycle 1 (without erlotinib)): 4.11–14.7 L/h/m^2
Dosage-normalized AUC, Range ([3]; Cycle 1 (without erlotinib)): 35.1 to 142 ng·h/mL
CLrenal, Mean (SD) ([3]; Cycle 2/3 (with erlotinib)): 4.07 (1.87) L/h/m^2
CLrenal, Median ([3]; Cycle 2/3 (with erlotinib)): 3.84 L/h/m^2
CLrenal, Range ([3]; Cycle 2/3 (with erlotinib)): 1.04–7.04 L/h/m^2
CL, Mean (SD) ([3]; Cycle 2/3 (with erlotinib)): 8.60 (3.04) L/h/m^2
CL, Median ([3]; Cycle 2/3 (with erlotinib)): 8.57 L/h/m^2
CL, Range ([3]; Cycle 2/3 (with erlotinib)): 3.56–14.6 L/h/m^2
Dosage-normalized AUC, Range ([3]; Cycle 2/3 (with erlotinib)): 51.4 to 237.2 ng·h/mL
mean (terminal) clearance of topotecan, lower in Cycle 2/3 compared to Cycle 1 ([3]; with erlotinib vs without, p = 0.17): 8.6%
mean renal clearance of topotecan, decrease in Cycle 2/3 compared to Cycle 1 ([3]; with erlotinib vs without, p = 0.21): 17.8%
mean dosage-normalized AUC of topotecan, higher in Cycle 2/3 than in Cycle 1 ([3]; with erlotinib vs without, p = 0.45): 8.0%

C#Cc1cccc(Nc2ncnc3cc(OCCOC)c(OCCOC)cc23)c1 [erlotinib]
effect of erlotinib on topotecan clearance / disposition ([3]; erlotinib 150 mg daily, oral): does not affect the disposition of topotecan to a clinically significant extent; also recorded: did not have a clinically significant effect on topotecan clearance or exposure; also recorded: no significant effect on topotecan systemic clearance

CS(=O)(=O)CCNCc1ccc(-c2ccc3ncnc(Nc4ccc(OCc5cccc(F)c5)c(Cl)c4)c3c2)o1 [lapatinib]
partial response, patients [4]: One partial response
patients deriving clinical benefit [4]: three patients
disease stabilization, patients [5]: 12
partial response, patients [5]: Five patients
